ChEMBL document CHEMBL2396547, “Anticancer effects of a novel class rosin-derivatives with different mechanisms” (Bioorg Med Chem Lett, 2013)
pIC50: −log10 of the molar value. Calls of active or inactive are those of the source. No cut-off for these calls is given here.

How the values were obtained:
[1] = tested on: Jurkat; test: Cytotoxicity against human Jurkat cells assessed as growth inhibition after 72 hrs by MTT assay; format: functional, cell-based
[2] = tested on: EJ; test: Cytotoxicity against human EJ cells assessed as growth inhibition after 72 hrs by MTT assay; format: functional, cell-based
[3] = tested on: EJ; test: Cytotoxicity against human EJ cells assessed as cell death up to 20 uM measured within 1 hr by MTT assay; format: functional, cell-based
[4] = tested on: HeLa; test: Cytotoxicity against human HeLa cells assessed as growth inhibition after 72 hrs by MTT assay; format: functional, cell-based
[5] = tested on: 5637; test: Cytotoxicity against human 5637 cells assessed as growth inhibition after 72 hrs by MTT assay; format: functional, cell-based; conditions: Homo sapiens, 5637, 72 h
[6] = tested on: PC-3; test: Cytotoxicity against human PC3 cells assessed as growth inhibition after 72 hrs by MTT assay; format: functional, cell-based; conditions: PC-3, 72 h
[7] = tested on: EJ; test: Induction of apoptosis in human EJ cells assessed as necrotic cells at 5 uM after 24 hrs by annexin V-FITC/propidium iodide staining-based flow cytometric analysis (reference value: 0.28 to 0.30%); format: functional
[8] = tested on: EJ; test: Induction of necrosis in human EJ cells assessed as disruption of membrane integrity measuring loss of microvilli at 15 uM after 1 hr by scanning electron microscopic analysis; format: functional, cell-based
[9] = tested on: EJ; test: Induction of apoptosis in human EJ cells assessed as late apoptotic cells at 5 uM after 24 hrs by annexin V-FITC/propidium iodide staining-based flow cytometric analysis (reference value: 0.08 to 0.22%); format: functional
[10] = tested on: EJ; test: Induction of apoptosis in human EJ cells assessed as decrease in procaspase-9 level at 5 uM after 24 hrs by Western blot analysis; format: functional, cell-based
[11] = tested on: EJ; test: Induction of apoptosis in human EJ cells assessed as cristae swelling at 5 uM after 24 hrs by transmission electron microscopic analysis; format: functional, cell-based
[12] = tested on: EJ; test: Induction of apoptosis in human EJ cells assessed as caspase-8 activation at 5 uM after 24 hrs by Western blot analysis; format: functional, cell-based
[13] = tested on: EJ; test: Induction of necrosis in human EJ cells assessed as disruption of membrane integrity at 15 uM after 1 hr by propidium iodide uptake assay; format: functional, cell-based
[14] = tested on: EJ; test: Induction of apoptosis in human EJ cells assessed as disruption of mitochondria with frequent fusion between great number of vaculoes at 5 uM after 24 hrs by transmission electron microscopic analysis; format: functional, cell-based
[15] = tested on: EJ; test: Induction of apoptosis in human EJ cells assessed as decrease in procaspase-3 level at 5 uM after 24 hrs by Western blot analysis; format: functional, cell-based
[16] = tested on: EJ; test: Induction of apoptosis in human EJ cells assessed as mitochondrial matrix condensation at 5 uM after 24 hrs by transmission electron microscopic analysis; format: functional, cell-based
[17] = tested on: EJ; test: Cytotoxicity against human EJ cells assessed as cell death at 10 to 20 uM after 1 hr by MTT assay; format: functional, cell-based
[18] = tested on: EJ; test: Induction of apoptosis in human EJ cells assessed as formation of apoptotic bodies at 5 uM after 24 hrs by Hoechst 33342 staining-based confocal microscopic analysis; format: functional, cell-based
[19] = tested on: EJ; test: Induction of apoptosis in human EJ cells assessed as nuclear fragmentation at 5 uM after 24 hrs by transmission electron microscopic analysis; format: functional, cell-based
[20] = tested on: EJ; test: Induction of apoptosis in human EJ cells assessed as nuclear condensation at 5 uM after 24 hrs by Hoechst 33342 staining-based confocal microscopic analysis; format: functional, cell-based
[21] = Hemolytic activity in mouse RBC at 100 uM after 1 hr by ELISA relative to control; format: ADME, cell-based, Erythrocyte; conditions: mouse red blood cells, read-out: Activity
[22] = tested on: EJ; test: Induction of apoptosis in human EJ cells assessed as early apoptotic cells at 5 uM after 24 hrs by annexin V-FITC/propidium iodide staining-based flow cytometric analysis (reference value: 0.01 to 0.04%); format: functional
[23] = tested on: EJ; test: Induction of apoptosis in human EJ cells assessed as peripheral nuclear chromatin condensation at 5 uM after 24 hrs by transmission electron microscopic analysis; format: functional, cell-based
[24] = tested on: EJ; test: Induction of necrosis in human EJ cells assessed as disruption of membrane integrity measuring pore formation at 15 uM after 1 hr by scanning electron microscopic analysis; format: functional, cell-based
[25] = tested on: EJ; test: Induction of apoptosis in human EJ cells assessed as viable cells at 5 uM after 24 hrs by annexin V-FITC/propidium iodide staining-based flow cytometric analysis (reference value: 99.6%); format: functional; conditions: read-out: Activity
[26] = tested on: EJ; test: Induction of apoptosis in human EJ cells assessed as increase in cytosolic cytochrome c level at 5 uM after 24 hrs by Western blot analysis; format: functional, cell-based

Q: What does the source list for C=C[C@H]1CN2CC[C@H]1C[C@H]2[C@H](O)c1ccnc2ccc(OC)cc12 [QUININE]?
A: pIC50 [1]: < 4.30; pIC50 [2]: < 4.30; Activity [3]: inactive; pIC50 [4]: < 4.30; pIC50 [5]: < 4.30; pIC50 [6]: < 4.30

Q: What does the source list for CC(C)c1ccc2c(c1)CC[C@H]1[C@](C)(C(=O)O)CCC[C@]21C [DEHYDROABIETIC ACID]?
A: pIC50 [1]: 4.59; pIC50 [2]: 4.60; pIC50 [4]: 4.55; pIC50 [5]: 4.56; pIC50 [6]: 4.55

Q: What does the source list for CC(C)c1ccc2c(c1)CC[C@H]1[C@](C)(CNC(=S)N[C@H]3CCCC[C@@H]3N)CCC[C@]21C?
A: Activity [7]: 0.25%; Activity [8]: Active; Activity [9]: 9.06%; pIC50 [1]: 5.46; pIC50 [2]: 5.52; Activity [10]: Active; Activity [11]: Active; Activity [12]: inactive; Activity [13]: Active; Activity [14]: Active; Activity [15]: inactive; Activity [16]: Active; Activity [17]: Active; Activity [18]: Active; Activity [19]: Active; Activity [20]: Active; hemolysis at 1 h, 100 µM [21]: 74.4%; Activity [22]: 81.9%; Activity [23]: Active; pIC50 [4]: 5.43; Activity [24]: Active; pIC50 [5]: 5.50; pIC50 [6]: 5.45; viability at 5 µM [25]: 8.8%; Activity [26]: Active

Q: For CC(C)c1ccc2c(c1)CC[C@H]1[C@](C)(CNC(=S)N[C@@H]3CCCC[C@H]3N3CCCC3)CCC[C@]21C, which Activity [7] is on record?
A: The Activity was 0.01%.

Q: What about the Activity [9] of the same compound?
A: The Activity was 4.73%.

Q: And the pIC50 [1]?
A: The pIC50 was 5.47.

Q: What about the pIC50 [2] of the same compound?
A: The pIC50 was 5.46.

Q: And the Activity [10]?
A: The Activity was “Active”.

Q: And the Activity [13]?
A: The Activity was “Active”.

Q: What about the Activity [18] of the same compound?
A: The Activity was “Active”.

Q: What about the Activity [20] of the same compound?
A: The Activity was “Active”.

Q: And the Activity [22]?
A: The Activity was 94.6%.

Q: And the pIC50 [4]?
A: Its pIC50 is 5.35.

Q: And the pIC50 [5]?
A: Its pIC50 is 5.44.

Q: And the pIC50 [6]?
A: Its pIC50 is 5.33.

Q: What about the viability at 5 µM [25] of the same compound?
A: The viability at 5 µM was 0.64%.

Q: And the Activity [26]?
A: The Activity was “Active”.
